{"source": "patent US10543184B2", "about": "“Method to treat functional somatic syndromes with combination of aciclovir and celecoxib” (INNOVATIVE MED CONCEPTS, LLC, priority 2012, dated 2020)", "origin": "cited, not measured here", "system": "fibromyalgia patients", "details": "Kendall et al., J. Rheumatology (2004) 31, 783-784", "data": [{"smiles": "CC(C)[C@H](N)C(=O)OCCOCn1cnc2c(=O)[nH]c(N)nc21", "note": "[valacyclovir]", "values": [{"measurement": "Outcome of treating fibromyalgia patients", "result": "not successful"}]}]}
